Key:
Type in all cases: functional
[1] = system: Brassica napus; test: Herbicidal activity against Brassica napus at 1.5 kg/hectare administered postemergence of first true leaf measured after 10 days; details: post-emergence, 240 h
[2] = system: Amaranthus retroflexus; test: Herbicidal activity against Amaranthus retroflexus at 1.5 kg/hectare administered postemergence of first true leaf measured after 10 days; details: post-emergence, 240 h
[3] = system: Medicago sativa; test: Herbicidal activity against Medicago sativa at 1.5 kg/hectare administered postemergence of first true leaf measured after 10 days; details: post-emergence, 240 h
[4] = system: Digitaria sanguinalis; test: Herbicidal activity against Digitaria sanguinalis at 1.5 kg/hectare administered postemergence of first true leaf measured after 10 days; details: post-emergence, 240 h
[5] = system: Amaranthus retroflexus; test: Herbicidal activity against Amaranthus retroflexus at 1.5 kg/hectare administered preemergence of first true leaf measured after 10 days; details: pre-emergence, 240 h
[6] = system: Medicago sativa; test: Herbicidal activity against Medicago sativa at 1.5 kg/hectare administered preemergence of first true leaf measured after 10 days; details: pre-emergence, 240 h
[7] = system: Digitaria sanguinalis; test: Herbicidal activity against Digitaria sanguinalis (L.) Scop. at 1.5 kg/hectare administered preemergence of first true leaf measured after 10 days; details: pre-emergence, 240 h
[8] = system: Fusarium graminearum; test: Fungicidal activity against Gibberella zeae assessed as inhibition of mycelium growth at 50 mg/L after 72 hrs
[9] = system: Alternaria solani; test: Fungicidal activity against Alternaria solani assessed as inhibition of mycelium growth at 50 mg/L after 72 hrs
[10] = system: Mycosphaerella arachidis; test: Fungicidal activity against Cercospora arachidicola assessed as inhibition of mycelium growth at 50 mg/L after 72 hrs
[11] = system: Botryosphaeria berengeriana; test: Fungicidal activity against Physalospora pyricola assessed as inhibition of mycelium growth at 50 mg/L after 72 hrs
[12] = system: Cladosporium cucumerinum; test: Fungicidal activity against Cladosporium cucumerinum assessed as inhibition of mycelium growth at 50 mg/L after 72 hrs
[13] = system: Cucumis sativus; test: Growth regulatory activity in cucumber assessed as root growth at 10 mg/L incubated in dark for 5 days
[14] = system: HL-60; test: Antitumor activity against human HL60 cells at 1000 uM/L after 72 hrs by MTT assay; details: HL-60, 72 h
[15] = system: HL-60; test: Antitumor activity against human HL60 cells at 100 uM/L after 72 hrs by MTT assay; details: HL-60, 72 h
[16] = system: HL-60; test: Antitumor activity against human HL60 cells at 10 uM/L after 72 hrs by MTT assay; details: HL-60, 72 h
[17] = system: HL-60; test: Antitumor activity against human HL60 cells at 1 uM/L after 72 hrs by MTT assay; details: HL-60, 72 h
[18] = system: Bel-7402; test: Antitumor activity against human Bel7402 cells at 1000 uM/L after 72 hrs by MTT assay; details: Bel-7402, 72 h
[19] = system: Bel-7402; test: Antitumor activity against human Bel7402 cells at 100 uM/L after 72 hrs by MTT assay; details: Bel-7402, 72 h
[20] = system: Bel-7402; test: Antitumor activity against human Bel7402 cells at 10 uM/L after 72 hrs by MTT assay; details: Bel-7402, 72 h
[21] = system: Bel-7402; test: Antitumor activity against human Bel7402 cells at 1 uM/L after 72 hrs by MTT assay; details: Bel-7402, 72 h
[22] = system: Brassica napus; test: Herbicidal activity against Brassica napus L. at 1.5 kg/hectare administered preemergence of first true leaf measured after 10 days; details: pre-emergence, 240 h

Compound: CCOCCOC(=O)/C(C#N)=C(\NNc1cccc(Cl)c1Cl)C(C)C
- inhibition at 1500 g/ha [1]: 0.2%
- inhibition at 1500 g/ha [2]: 22.7%
- inhibition at 1500 g/ha [3]: 5.1%
- inhibition at 1500 g/ha [4]: 16.1%
- inhibition at 1500 g/ha [5]: 0%
- inhibition at 1500 g/ha [6]: 0%
- inhibition at 1500 g/ha [7]: 0%
- inhibition at 50 µg/mL [8]: 14.4%
- inhibition at 50 µg/mL [9]: 35%
- inhibition at 50 µg/mL [10]: 36.4%
- inhibition at 50 µg/mL [11]: 66.7%
- inhibition at 50 µg/mL [12]: 25%
- Activity [13]: 72.9%
- inhibition at 1000 µM [14]: 48.8%
- inhibition at 100 µM [15]: 36.2%
- inhibition at 10 µM [16]: 28.7%
- inhibition at 1 µM [17]: 24.3%
- inhibition at 1000 µM [18]: 49.1%
- inhibition at 100 µM [19]: 19%
- inhibition at 10 µM [20]: 15.1%
- inhibition at 1 µM [21]: 14.7%
- inhibition at 1500 g/ha [22]: 0%

Compound: CCOCCOC(=O)c1c(SC)nn(-c2ccc(C)cc2C)c1N
- inhibition at 1500 g/ha [1]: 24.1%
- inhibition at 1500 g/ha [2]: 0%
- inhibition at 1500 g/ha [3]: 0%
- inhibition at 1500 g/ha [4]: 0%
- inhibition at 1500 g/ha [5]: 0%
- inhibition at 1500 g/ha [6]: 0%
- inhibition at 1500 g/ha [7]: 0%
- inhibition at 50 µg/mL [8]: 46.7%
- inhibition at 50 µg/mL [9]: 8%
- inhibition at 50 µg/mL [10]: 35.3%
- inhibition at 50 µg/mL [11]: 9.3%
- inhibition at 50 µg/mL [12]: 10.9%
- Activity [13]: 42.2%
- inhibition at 1000 µM [14]: 43.5%
- inhibition at 100 µM [15]: 49.9%
- inhibition at 10 µM [16]: 21%
- inhibition at 1 µM [17]: 9.4%
- inhibition at 1000 µM [18]: 32.9%
- inhibition at 100 µM [19]: 0%
- inhibition at 10 µM [20]: 0%
- inhibition at 1 µM [21]: 0%
- inhibition at 1500 g/ha [22]: 0%

Compound: CCOCCOC(=O)c1c(C(C)C)nn(-c2ccc([N+](=O)[O-])cc2)c1N
- inhibition at 1500 g/ha [1]: 0%
- inhibition at 1500 g/ha [2]: 0%
- inhibition at 1500 g/ha [3]: 0%
- inhibition at 1500 g/ha [4]: 0%
- inhibition at 1500 g/ha [5]: 0%
- inhibition at 1500 g/ha [6]: 0%
- inhibition at 1500 g/ha [7]: 0%
- inhibition at 50 µg/mL [8]: 46.7%
- inhibition at 50 µg/mL [9]: 16%
- inhibition at 50 µg/mL [10]: 44.1%
- inhibition at 50 µg/mL [11]: 46.7%
- inhibition at 50 µg/mL [12]: 40%
- Activity [13]: 21.9%
- inhibition at 1000 µM [14]: 10%
- inhibition at 100 µM [15]: 27.8%
- inhibition at 10 µM [16]: 9%
- inhibition at 1 µM [17]: 0%
- inhibition at 1000 µM [18]: 48.6%
- inhibition at 100 µM [19]: 10.7%
- inhibition at 10 µM [20]: 6.2%
- inhibition at 1 µM [21]: 0%
- inhibition at 1500 g/ha [22]: 0%

Compound: CCOCCOC(=O)c1c(C(C)C)nn(-c2ccc(Cl)cc2Cl)c1N
- inhibition at 1500 g/ha [1]: 0%
- inhibition at 1500 g/ha [2]: 0%
- inhibition at 1500 g/ha [3]: 16.6%
- inhibition at 1500 g/ha [4]: 0%
- inhibition at 1500 g/ha [5]: 0%
- inhibition at 1500 g/ha [6]: 0%
- inhibition at 1500 g/ha [7]: 0%
- inhibition at 50 µg/mL [8]: 26.7%
- inhibition at 50 µg/mL [9]: 28%
- inhibition at 50 µg/mL [10]: 44.1%
- inhibition at 50 µg/mL [11]: 9.3%
- inhibition at 50 µg/mL [12]: 30.9%
- Activity [13]: -2.4%
- inhibition at 1000 µM [14]: 56.8%
- inhibition at 100 µM [15]: 11.8%
- inhibition at 10 µM [16]: 4.4%
- inhibition at 1 µM [17]: 4.4%
- inhibition at 1000 µM [18]: 45.6%
- inhibition at 100 µM [19]: 4.2%
- inhibition at 10 µM [20]: 0%
- inhibition at 1 µM [21]: 5.5%
- inhibition at 1500 g/ha [22]: 0%

Compound: CCOCCOC(=O)/C(C#N)=C(/CC)NNc1c(Cl)cc(Cl)cc1Cl
- inhibition at 1500 g/ha [1]: 0%
- inhibition at 1500 g/ha [2]: 13.3%
- inhibition at 1500 g/ha [3]: 5.6%
- inhibition at 1500 g/ha [4]: 1.8%
- inhibition at 1500 g/ha [5]: 8.8%
- inhibition at 1500 g/ha [6]: 0%
- inhibition at 1500 g/ha [7]: 0%
- inhibition at 50 µg/mL [8]: 19.2%
- inhibition at 50 µg/mL [9]: 25%
- inhibition at 50 µg/mL [10]: 15.5%
- inhibition at 50 µg/mL [11]: 46.7%
- inhibition at 50 µg/mL [12]: 22.2%
- Activity [13]: -16.5%
- inhibition at 1000 µM [14]: 84.3%
- inhibition at 100 µM [15]: 36.6%
- inhibition at 10 µM [16]: 23.1%
- inhibition at 1 µM [17]: 2.5%
- inhibition at 1000 µM [18]: 95.9%
- inhibition at 100 µM [19]: 3.6%
- inhibition at 10 µM [20]: 3.9%
- inhibition at 1 µM [21]: 0%
- inhibition at 1500 g/ha [22]: 0%

Compound: CCOCCOC(=O)/C(C#N)=C(\NNc1c(Cl)cccc1Cl)C(C)C
- inhibition at 1500 g/ha [1]: 2.3%
- inhibition at 1500 g/ha [2]: 15.6%
- inhibition at 1500 g/ha [3]: 1.4%
- inhibition at 1500 g/ha [4]: 0%
- inhibition at 1500 g/ha [5]: 0%
- inhibition at 1500 g/ha [6]: 0%
- inhibition at 1500 g/ha [7]: 0%
- inhibition at 50 µg/mL [8]: 4.8%
- inhibition at 50 µg/mL [9]: 10%
- inhibition at 50 µg/mL [10]: 0%
- inhibition at 50 µg/mL [11]: 10.7%
- inhibition at 50 µg/mL [12]: 0%
- Activity [13]: -6%
- inhibition at 1000 µM [14]: 73.4%
- inhibition at 100 µM [15]: 21.4%
- inhibition at 10 µM [16]: 7.7%
- inhibition at 1 µM [17]: 0%
- inhibition at 1000 µM [18]: 45.1%
- inhibition at 100 µM [19]: 17.3%
- inhibition at 10 µM [20]: 9.5%
- inhibition at 1 µM [21]: 7.6%
- inhibition at 1500 g/ha [22]: 9.9%

Compound: CCOCCOC(=O)/C(C#N)=C(\NNc1cc(Cl)c(Cl)cc1Cl)C(C)C
- inhibition at 1500 g/ha [1]: 5%
- inhibition at 1500 g/ha [2]: 20.3%
- inhibition at 1500 g/ha [3]: 3.7%
- inhibition at 1500 g/ha [4]: 0%
- inhibition at 1500 g/ha [5]: 5.9%
- inhibition at 1500 g/ha [6]: 0%
- inhibition at 1500 g/ha [7]: 0%
- inhibition at 50 µg/mL [8]: 14.4%
- inhibition at 50 µg/mL [9]: 10%
- inhibition at 50 µg/mL [10]: 18.2%
- inhibition at 50 µg/mL [11]: 26.7%
- inhibition at 50 µg/mL [12]: 16.7%
- Activity [13]: -1.5%
- inhibition at 1000 µM [14]: 81.1%
- inhibition at 100 µM [15]: 1.5%
- inhibition at 10 µM [16]: 23.4%
- inhibition at 1 µM [17]: 7.1%
- inhibition at 1000 µM [18]: 96.9%
- inhibition at 100 µM [19]: 0%
- inhibition at 10 µM [20]: 0%
- inhibition at 1 µM [21]: 0%
- inhibition at 1500 g/ha [22]: 0%

Compound: CCOCCOC(=O)c1c(SC)nn(-c2ccccc2)c1N
- inhibition at 1500 g/ha [1]: 53.6%
- inhibition at 1500 g/ha [2]: 32%
- inhibition at 1500 g/ha [3]: 38.3%
- inhibition at 1500 g/ha [4]: 0%
- inhibition at 1500 g/ha [5]: 10%
- inhibition at 1500 g/ha [6]: 0%
- inhibition at 1500 g/ha [7]: 0%
- inhibition at 50 µg/mL [8]: 42.2%
- inhibition at 50 µg/mL [9]: 8%
- inhibition at 50 µg/mL [10]: 41.2%
- inhibition at 50 µg/mL [11]: 0%
- inhibition at 50 µg/mL [12]: 12.7%
- Activity [13]: 50.4%
- inhibition at 1000 µM [14]: 10.6%
- inhibition at 100 µM [15]: 0.6%
- inhibition at 10 µM [16]: 6.8%
- inhibition at 1 µM [17]: 4.3%
- inhibition at 1000 µM [18]: 49%
- inhibition at 100 µM [19]: 0%
- inhibition at 10 µM [20]: 0%
- inhibition at 1 µM [21]: 0%
- inhibition at 1500 g/ha [22]: 0%
